Experiment: Serum concentration and pharmacokinetics of SCI after oral gavage in Wistar rats
Type: in vivo, Wistar rat
Procedure: All procedures were performed according to the Local Ethical Committee of Experiments on Animals guidelines in Olsztyn, Poland. The experiment was conducted in the same way as described by Antonowski et al.. Briefly, the experiment was performed on male Wistar rats (n = 6). Rats were maintained in ventilated rooms under a standard day photoperiod (12:12 h light–dark) as well as with lights on from 700 to 1900 h at 21 °C. All rats had free access to food and water. At 42 days of age, rats were randomized into experimental groups (Table 1 and Table 4).
Before the administration of cyclitol (10 mg/kg), the rats were fasting for 12 h (Table 1). […] Access to water was unlimited during the experiments. The study group (n = 6) was divided into two subgroups (n = 3 rats per subgroup). This practice allows for the use of only 6 rats for the entire experiment in accordance with the 3 Rs principle. Rats received the compound at a dose of 10 mg/kg body weight. Rats were weighed before starting the compound administration. Cyclitol was administered to the rats from the study group using a stainless-steel gastric tube with a ball tip (manufacturer—Agnthos, curved gastric tube, 16G, 3 mm tip, 75 mm). Cyclitol was dissolved in distilled water to a maximum volume of 1 mL. The prepared solution was administered to the animal.
Blood samples were collected into Eppendorf tubes and were centrifuged at 2500× g for 10 min at 8 °C the following day. Blood was harvested from the tail at a specific time. […] Serum was stored at −80 °C for subsequent analyses.
The analysis is described in detail by Antonowski and co-workers. Briefly, the first step was to remove the protein, then concentrate the sample in a speed vacuum evaporator to dryness. Next, samples were analyzed using the high-resolution gas chromatography method. We used a gas chromatograph GC2010Plus (Shimadzu, Tokyo, Japan) with a capillary column ZEBRON ZB-1 (15 m length, 0.25 mm diameter, and 0.1 μm film thickness, Phenomenex, Torrance, CA, USA). Helium was used as a carrier gas (at a flow rate of 1.18 mL min^−1). […] Finally, scyllo-inositol was quantified by using a standard.
The PK parameters were calculated using PK Solver. PKSolver is an add-in program for pharmacokinetic and pharmacodynamic data analysis […]. […] The area under the drug concentration–time curve from time zero to the time of the last quantifiable concentration (AUClast) was calculated using the trapezoidal rule. The volume over which the drug was distributed (Vd) and clearance (CL) were conducted by PK Solver. […] Nevertheless, we estimated K by log-linear regression analysis on data points on the terminal log-linear phase. Noncompartmental analysis is generally the preferred methodology to use in that it requires fewer assumptions than model-based approaches. We presented the results for individual rats, subgroups of rats, and for all subjects studied. The content of scyllo-inositol was calculated from the standard curves of appropriate components. To determine the terminal phase, […] was sufficient.
An analysis of all parameters was carried out with GraphPad Prism software (Version 10 Graph Pad Software Inc., La Jolla, CA, USA). Data are expressed as means ± SEM or individual data. Briefly, AUClast was calculated using the trapezoidal method. The T0.5 of oral administration was calculated as 0.693/K.

[1] = Mean of rats 1–3 ± SEM, serum, oral 10 mg/kg

O[C@H]1[C@H](O)[C@@H](O)[C@H](O)[C@@H](O)[C@@H]1O [SCI, scyllo-inositol]
CL [1]: 0.112 ± 0.008 (95%CI: 0.145–0.079) L/h | Vd [1]: 4.182 ± 2.287 (95%CI: 14.02–(−5.656)) L | CL (Mean of rats 4–6 ± SEM, serum, oral 10 mg/kg): 0.216 ± 0.055 (95%CI: 0.451–(−0.02)) L/h | CL (Rat No 1, serum, oral 10 mg/kg): 0.1 L/h | Vd (Rat No 1, serum, oral 10 mg/kg): 0.039 L | CL (Rat No 2, serum, oral 10 mg/kg): 0.11 L/h | Vd (Rat No 2, serum, oral 10 mg/kg): 7.93 L | CL (Rat No 3, serum, oral 10 mg/kg): 0.126 L/h | Vd (Rat No 3, serum, oral 10 mg/kg): 4.578 L | CL (Rat No 4, serum, oral 10 mg/kg): 0.325 L/h | Vd (Rat No 4, serum, oral 10 mg/kg): 0.358 L | CL (Rat No 5, serum, oral 10 mg/kg): 0.16 L/h | Vd (Rat No 5, serum, oral 10 mg/kg): 0.9967 L | CL (Rat No 6, serum, oral 10 mg/kg): 0.162 L/h | Vd (Rat No 6, serum, oral 10 mg/kg): 0.566 L | Concentration of SCI in serum (Rat No. 1, time 0 h, oral 10 mg/kg): BLQ | Concentration of SCI in serum (Rat No. 1, time 0.25 h, oral 10 mg/kg): BLQ | Concentration of SCI in serum (Rat No. 1, time 12 h, oral 10 mg/kg): BLQ | Concentration of SCI in serum (Rat No. 1, time 24 h, oral 10 mg/kg): BLQ | Concentration of SCI in serum (Rat No. 2, time 0 h, oral 10 mg/kg): BLQ | Concentration of SCI in serum (Rat No. 2, time 0.25 h, oral 10 mg/kg): BLQ | Concentration of SCI in serum (Rat No. 2, time 12 h, oral 10 mg/kg): BLQ | Concentration of SCI in serum (Rat No. 2, time 24 h, oral 10 mg/kg): BLQ | Concentration of SCI in serum (Rat No. 3, time 0 h, oral 10 mg/kg): BLQ | Concentration of SCI in serum (Rat No. 3, time 0.25 h, oral 10 mg/kg): BLQ | Concentration of SCI in serum (Rat No. 3, time 12 h, oral 10 mg/kg): BLQ | Concentration of SCI in serum (Rat No. 3, time 24 h, oral 10 mg/kg): BLQ | Concentration of SCI in serum (Rat No. 4, time 36 h, oral 10 mg/kg): BLQ | Concentration of SCI in serum (Rat No. 4, time 48 h, oral 10 mg/kg): BLQ | Concentration of SCI in serum (Rat No. 5, time 36 h, oral 10 mg/kg): BLQ | Concentration of SCI in serum (Rat No. 5, time 48 h, oral 10 mg/kg): BLQ | Concentration of SCI in serum (Rat No. 6, time 36 h, oral 10 mg/kg): BLQ | Concentration of SCI in serum (Rat No. 6, time 48 h, oral 10 mg/kg): BLQ | concentration at 0 min (male, Wistar, rat, serum, oral, 10 mg/kg, Mean concentration of SCI in serum, at the point of administration (0 min), rats 1–3): 0 ng/mL | concentration at 0.5 h (male, Wistar, rat, serum, po, 10 mg/kg, Concentration of SCI in serum, Rat No. 1, oral 10 mg/kg): 1000 ng/mL | concentration at 1 h (male, Wistar, rat, serum, po, 10 mg/kg, Concentration of SCI in serum, Rat No. 1, time 1 h, oral 10 mg/kg): 1600 ng/mL | concentration at 1.5 h (male, Wistar, rat, serum, po, 10 mg/kg, Concentration of SCI in serum, Rat No. 1, time 1.5 h, oral 10 mg/kg): 7200 ng/mL | concentration at 0.5 h (male, Wistar, rat, serum, po, 10 mg/kg, Concentration of SCI in serum, Rat No. 2, oral 10 mg/kg): 4600 ng/mL | concentration at 1 h (male, Wistar, rat, serum, po, 10 mg/kg, Concentration of SCI in serum, Rat No. 2, time 1 h, oral 10 mg/kg): 5600 ng/mL | concentration at 1.5 h (male, Wistar, rat, serum, po, 10 mg/kg, Concentration of SCI in serum, Rat No. 2, time 1.5 h, oral 10 mg/kg): 6200 ng/mL | concentration at 0.5 h (male, Wistar, rat, serum, po, 10 mg/kg, Concentration of SCI in serum, Rat No. 3, oral 10 mg/kg): 5600 ng/mL | concentration at 1 h (male, Wistar, rat, serum, po, 10 mg/kg, Concentration of SCI in serum, Rat No. 3, time 1 h, oral 10 mg/kg): 6800 ng/mL | concentration at 1.5 h (male, Wistar, rat, serum, po, 10 mg/kg, Concentration of SCI in serum, Rat No. 3, time 1.5 h, oral 10 mg/kg): 4400 ng/mL | concentration at 2 h (male, Wistar, rat, serum, po, 10 mg/kg, Concentration of SCI in serum, Rat No. 4, time 2 h, oral 10 mg/kg): 3200 ng/mL | concentration at 4 h (male, Wistar, rat, serum, po, 10 mg/kg, Concentration of SCI in serum, Rat No. 4, time 4 h, oral 10 mg/kg): 600 ng/mL | concentration at 8 h (male, Wistar, rat, serum, po, 10 mg/kg, Concentration of SCI in serum, Rat No. 4, time 8 h, oral 10 mg/kg): 400 ng/mL | concentration at 2 h (male, Wistar, rat, serum, po, 10 mg/kg, Concentration of SCI in serum, Rat No. 5, time 2 h, oral 10 mg/kg): 3800 ng/mL | concentration at 4 h (male, Wistar, rat, serum, po, 10 mg/kg, Concentration of SCI in serum, Rat No. 5, time 4 h, oral 10 mg/kg): 6100 ng/mL | concentration at 8 h (male, Wistar, rat, serum, po, 10 mg/kg, Concentration of SCI in serum, Rat No. 5, time 8 h, oral 10 mg/kg): 200 ng/mL | concentration at 2 h (male, Wistar, rat, serum, po, 10 mg/kg, Concentration of SCI in serum, Rat No. 6, time 2 h, oral 10 mg/kg): 5400 ng/mL | concentration at 4 h (male, Wistar, rat, serum, po, 10 mg/kg, Concentration of SCI in serum, Rat No. 6, time 4 h, oral 10 mg/kg): 3600 ng/mL | concentration at 8 h (male, Wistar, rat, serum, po, 10 mg/kg, Concentration of SCI in serum, Rat No. 6, time 8 h, oral 10 mg/kg): 400 ng/mL | concentration at 30 min (male, Wistar, rat, serum, po, 10 mg/kg, Mean concentration of SCI in serum, 30 min after oral 10 mg/kg, mean of rats 1–3): 3730 ng/mL | concentration at 1 h (male, Wistar, rat, serum, po, 10 mg/kg, Mean concentration of SCI in serum, 1 h after oral 10 mg/kg, mean of rats 1–3): 4670 ng/mL | concentration at 1.5 h (male, Wistar, rat, serum, po, 10 mg/kg, Mean concentration of SCI in serum, 1.5 h after oral 10 mg/kg, mean of rats 1–3): 5930 ng/mL | concentration at 2 h (male, Wistar, rat, serum, po, 10 mg/kg, Mean concentration of SCI in serum, 2 h after oral 10 mg/kg, mean of rats 4–6): 4130 ng/mL | concentration at 4 h (male, Wistar, rat, serum, po, 10 mg/kg, Mean concentration of SCI in serum, 4 h after oral 10 mg/kg, mean of rats 4–6): 3430 ng/mL | concentration at 8 h (male, Wistar, rat, serum, po, 10 mg/kg, Mean concentration of SCI in serum, 8 h after oral 10 mg/kg, mean of rats 4–6): 330 ng/mL | concentration at 12 h (male, Wistar, rat, serum, po, 10 mg/kg, Mean concentration of SCI in serum, 12 h after oral 10 mg/kg, rats 1–3): 0 ng/mL

Reference: PMC12299890 (Pharmaceuticals, 2025)
